Measurements: the NIST ThermoML archive (doi:10.1016/j.jct.2014.02.024)
Numbers after ± are expanded uncertainties.

Assays:
[1] = 101.3 kPa, Liquid; for viscosity: Capillary tube (Ostwald / Ubbelohde) method; for mass density: Pycnometric method
[2] = mn = molality of the nth substance listed, in mol/kg; settings: 101.3 kPa, Liquid, m2 = 0; for viscosity: Capillary tube (Ostwald / Ubbelohde) method; for mass density: Pycnometric method

Compound | viscosity ([1]; 275.15 K) | mass density ([1]; 275.15 K) | viscosity ([1]; 277.15 K) | mass density ([1]; 277.15 K) | viscosity ([1]; 279.15 K) | mass density ([1]; 279.15 K) | viscosity ([2]; 275.15 K) | mass density ([2]; 275.15 K) | viscosity ([2]; 277.15 K) | mass density ([2]; 277.15 K) | viscosity ([2]; 279.15 K) | mass density ([2]; 279.15 K)
O [water] | 1.674 ± 0.036 mPa·s | 999.94 ± 0.92 kg/m3 | 1.567 ± 0.034 mPa·s | 999.97 ± 0.92 kg/m3 | 1.472 ± 0.032 mPa·s | 999.94 ± 0.92 kg/m3 |  |  |  |  |  | 
O [water] + NC(=O)c1cccnc1 |  |  |  |  |  |  | 1.674 ± 0.036 mPa·s | 999.94 ± 0.92 kg/m3 | 1.567 ± 0.034 mPa·s | 999.97 ± 0.92 kg/m3 | 1.472 ± 0.032 mPa·s | 999.94 ± 0.92 kg/m3
O [water] + O=C(O)c1cccnc1 |  |  |  |  |  |  | 1.674 ± 0.036 mPa·s | 999.94 ± 0.92 kg/m3 | 1.567 ± 0.034 mPa·s | 999.97 ± 0.92 kg/m3 | 1.472 ± 0.032 mPa·s | 999.94 ± 0.92 kg/m3
